Results reported in the NIST ThermoML archive (doi:10.1016/j.fluid.2015.10.027).
± gives the expanded uncertainty stated by the source.

Settings: 101.33 kPa, Liquid, Vibrating tube method

CC1CCCC(C)N1 (stereo not given) [2,6-dimethylpiperidine]
mass density (300.83 K): 816.664 ± 0.24 kg/m3
mass density (304.05 K): 813.975 ± 0.24 kg/m3
mass density (306.72 K): 811.615 ± 0.24 kg/m3
mass density (309.8 K): 809.031 ± 0.24 kg/m3
mass density (313.97 K): 805.478 ± 0.24 kg/m3
